One experiment deals with MAP3K2 (Homo sapiens, UniProt Q9Y2U5). As to the kind of experiment: KINOMEscan binding assay. The following applies: read-out: % Ctrl @ 10000 nM.
In a further experiment the target is PIK3CB (Homo sapiens, UniProt P42338). In words: KINOMEscan binding assay. The following applies: read-out: % Ctrl @ 10000 nM.
The next experiment deals with T1, VEGFR2 (Homo sapiens, UniProt P35968).
T1 construct: purchased DiscoveRx (KINOMEscan, LeadHunter Discovery services)
In words: KINOMEscan binding assay. The following applies: read-out: % Ctrl @ 10000 nM.

Another experiment concerns the target KIT-autoinhibited (Homo sapiens, UniProt P10721). In words: KINOMEscan binding assay. The following applies: read-out: % Ctrl @ 10000 nM.
For another experiment, the system named is non-mutant kinases. In words: KINOMEscan kinase screening panel, binding capacity and Selectivity Score. The following applies: 10 μM, 395 non-mutant kinases.
The next experiment deals with T2, MAP3K1 (Homo sapiens, UniProt Q13233).
T2 construct: T7 phage fusion (most assays) or DNA label after HEK293 expression; purchased DiscoveRx (KINOMEscan, LeadHunter Discovery services); host or cells: T7 phage in E. coli (BL21-derived) or HEK293
In words: KINOMEscan binding assay. As to conditions: read-out: % Ctrl @ 10000 nM.

In another experiment the target is SNARK (Homo sapiens, UniProt Q9H093). In words: KINOMEscan binding assay. As to conditions: read-out: % Ctrl @ 10000 nM.
The target in experiment [1] is ABL1 (F317L) phosphorylated (Homo sapiens, UniProt P00519, F317L). In words: KINOMEscan binding assay. The following applies: read-out: % Ctrl @ 10000 nM.
The target in the next experiment is JNK3 (Homo sapiens, UniProt P53779). In words: KINOMEscan binding assay. The following applies: read-out: % Ctrl @ 10000 nM.
A further experiment has as its target PAK4 (Homo sapiens, UniProt O96013). In words: KINOMEscan binding assay. The following applies: read-out: % Ctrl @ 10000 nM.
The target of the next experiment is CHEK2 (Homo sapiens, UniProt O96017). As to the kind of experiment: KINOMEscan binding assay. The following applies: read-out: % Ctrl @ 10000 nM.
A further experiment addresses EPHB2 (Homo sapiens, UniProt P29323). As to the kind of experiment: KINOMEscan binding assay. As to conditions: read-out: % Ctrl @ 10000 nM.
Another experiment addresses PFTAIRE2 (Homo sapiens, UniProt Q96Q40). In words: KINOMEscan binding assay. As to conditions: read-out: % Ctrl @ 10000 nM.
The next experiment deals with FGFR1 (Homo sapiens, UniProt P11362). As to the kind of experiment: KINOMEscan binding assay. The following applies: read-out: % Ctrl @ 10000 nM.
Another experiment addresses EGFR (T790M) (Homo sapiens, UniProt P00533, T790M). In words: KINOMEscan binding assay. The following applies: read-out: % Ctrl @ 10000 nM.
The next experiment deals with FLT3 (ITD). In words: KINOMEscan binding assay.
The target in a further experiment is FLT3 (N841I) (Homo sapiens, UniProt P36888, N841I). As to the kind of experiment: KINOMEscan binding assay. As to conditions: read-out: % Ctrl @ 10000 nM.
For another experiment, the target named is DYRK1A (Homo sapiens, UniProt Q13627). As to the kind of experiment: KINOMEscan binding assay. The following applies: read-out: % Ctrl @ 10000 nM.
The next experiment addresses CDK8 (Homo sapiens, UniProt P49336). As to the kind of experiment: KINOMEscan binding assay. As to conditions: read-out: % Ctrl @ 10000 nM.
The next experiment deals with NEK7 (Homo sapiens, UniProt Q8TDX7). As to the kind of experiment: KINOMEscan binding assay. The following applies: read-out: % Ctrl @ 10000 nM.

Consider two compounds from US10815230B2, “Casein kinase 1 delta inhibitor” (ELECTROPHORETICS LIMITED, priority 2015, dated 2020).

Sequence of NEK7 (Q8TDX7 whole entry): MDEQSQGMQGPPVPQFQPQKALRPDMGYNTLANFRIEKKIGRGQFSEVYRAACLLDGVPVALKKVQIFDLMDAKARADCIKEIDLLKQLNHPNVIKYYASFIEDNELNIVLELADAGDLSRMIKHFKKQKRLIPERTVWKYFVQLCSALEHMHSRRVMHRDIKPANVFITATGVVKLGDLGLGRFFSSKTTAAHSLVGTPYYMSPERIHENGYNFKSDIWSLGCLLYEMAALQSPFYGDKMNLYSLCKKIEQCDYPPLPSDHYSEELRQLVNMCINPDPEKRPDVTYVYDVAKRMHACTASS
Sequence of MAP3K2 (Q9Y2U5 whole entry): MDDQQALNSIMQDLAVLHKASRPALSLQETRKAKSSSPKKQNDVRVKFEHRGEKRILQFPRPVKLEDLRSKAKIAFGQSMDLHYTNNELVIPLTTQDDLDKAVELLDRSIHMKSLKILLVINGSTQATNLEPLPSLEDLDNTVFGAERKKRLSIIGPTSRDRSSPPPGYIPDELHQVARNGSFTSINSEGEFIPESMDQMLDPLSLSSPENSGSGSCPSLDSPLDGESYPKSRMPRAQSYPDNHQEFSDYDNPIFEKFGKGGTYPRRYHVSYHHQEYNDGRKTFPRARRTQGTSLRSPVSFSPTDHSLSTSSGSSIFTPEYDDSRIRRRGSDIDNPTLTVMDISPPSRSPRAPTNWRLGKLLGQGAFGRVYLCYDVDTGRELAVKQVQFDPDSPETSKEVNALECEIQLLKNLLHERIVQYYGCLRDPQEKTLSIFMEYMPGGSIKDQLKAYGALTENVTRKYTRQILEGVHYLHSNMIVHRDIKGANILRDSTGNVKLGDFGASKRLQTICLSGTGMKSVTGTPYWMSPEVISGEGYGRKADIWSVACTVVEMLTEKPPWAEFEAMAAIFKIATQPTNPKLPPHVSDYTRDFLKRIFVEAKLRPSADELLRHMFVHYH
Sequence of EPHB2 (P29323 19-1055): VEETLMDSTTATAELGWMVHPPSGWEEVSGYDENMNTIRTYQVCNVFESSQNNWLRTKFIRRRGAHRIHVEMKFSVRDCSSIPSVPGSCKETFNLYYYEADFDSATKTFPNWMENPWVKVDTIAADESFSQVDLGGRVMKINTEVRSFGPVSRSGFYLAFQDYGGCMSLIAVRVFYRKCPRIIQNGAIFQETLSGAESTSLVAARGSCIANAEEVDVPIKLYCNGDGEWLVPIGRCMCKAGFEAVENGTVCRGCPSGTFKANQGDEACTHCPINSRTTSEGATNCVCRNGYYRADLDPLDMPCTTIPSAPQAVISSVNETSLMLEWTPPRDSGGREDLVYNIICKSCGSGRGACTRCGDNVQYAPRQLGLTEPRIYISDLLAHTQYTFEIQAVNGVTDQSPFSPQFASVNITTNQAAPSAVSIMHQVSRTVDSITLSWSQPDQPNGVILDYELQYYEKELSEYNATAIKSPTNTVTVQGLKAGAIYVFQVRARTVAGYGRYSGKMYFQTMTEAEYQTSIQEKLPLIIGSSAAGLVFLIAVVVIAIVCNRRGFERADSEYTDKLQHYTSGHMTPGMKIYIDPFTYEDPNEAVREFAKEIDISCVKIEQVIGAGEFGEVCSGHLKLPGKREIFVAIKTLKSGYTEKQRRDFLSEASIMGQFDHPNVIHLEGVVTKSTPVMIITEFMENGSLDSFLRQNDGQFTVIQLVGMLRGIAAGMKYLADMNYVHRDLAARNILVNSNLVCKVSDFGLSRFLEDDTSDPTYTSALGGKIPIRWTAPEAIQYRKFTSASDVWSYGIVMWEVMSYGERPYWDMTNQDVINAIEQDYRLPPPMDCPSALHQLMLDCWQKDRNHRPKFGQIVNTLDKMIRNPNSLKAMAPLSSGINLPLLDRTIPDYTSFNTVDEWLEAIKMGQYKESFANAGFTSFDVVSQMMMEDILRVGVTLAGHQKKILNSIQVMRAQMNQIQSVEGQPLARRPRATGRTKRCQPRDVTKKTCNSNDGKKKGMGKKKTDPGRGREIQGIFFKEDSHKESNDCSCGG
Sequence of EGFR (T790M) (P00533 25-1210 T790M): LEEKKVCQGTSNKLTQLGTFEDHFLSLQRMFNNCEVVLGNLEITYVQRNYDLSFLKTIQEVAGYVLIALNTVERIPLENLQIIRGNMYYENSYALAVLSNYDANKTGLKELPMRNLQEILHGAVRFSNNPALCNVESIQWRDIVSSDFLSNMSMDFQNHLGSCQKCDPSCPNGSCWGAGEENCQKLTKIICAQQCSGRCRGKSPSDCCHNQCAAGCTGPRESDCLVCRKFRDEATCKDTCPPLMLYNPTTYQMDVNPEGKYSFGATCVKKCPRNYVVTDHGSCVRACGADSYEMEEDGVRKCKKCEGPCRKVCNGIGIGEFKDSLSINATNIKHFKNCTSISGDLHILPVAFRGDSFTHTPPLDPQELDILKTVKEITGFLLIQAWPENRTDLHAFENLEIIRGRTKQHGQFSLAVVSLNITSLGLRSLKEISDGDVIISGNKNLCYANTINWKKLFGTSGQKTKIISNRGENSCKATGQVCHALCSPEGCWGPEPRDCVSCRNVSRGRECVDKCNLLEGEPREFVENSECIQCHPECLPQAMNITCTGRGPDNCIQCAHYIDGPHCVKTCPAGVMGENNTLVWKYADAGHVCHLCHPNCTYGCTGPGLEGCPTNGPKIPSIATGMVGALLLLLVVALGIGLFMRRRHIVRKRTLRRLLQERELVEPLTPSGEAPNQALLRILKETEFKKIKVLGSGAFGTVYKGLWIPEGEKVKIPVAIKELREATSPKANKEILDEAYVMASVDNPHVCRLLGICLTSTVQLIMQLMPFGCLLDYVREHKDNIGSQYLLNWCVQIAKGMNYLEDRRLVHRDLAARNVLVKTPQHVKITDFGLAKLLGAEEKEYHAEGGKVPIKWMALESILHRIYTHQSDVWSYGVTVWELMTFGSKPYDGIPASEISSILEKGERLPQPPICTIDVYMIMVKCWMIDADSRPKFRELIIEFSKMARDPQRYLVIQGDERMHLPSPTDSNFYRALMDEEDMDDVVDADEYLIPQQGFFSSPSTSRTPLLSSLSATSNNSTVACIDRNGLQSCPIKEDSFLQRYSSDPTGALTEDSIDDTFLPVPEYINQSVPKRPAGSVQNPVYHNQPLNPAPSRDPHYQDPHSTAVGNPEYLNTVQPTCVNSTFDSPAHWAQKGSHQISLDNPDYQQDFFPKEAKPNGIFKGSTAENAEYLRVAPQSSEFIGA
T2 sequence (Q13233 whole entry, the tested form may be a part): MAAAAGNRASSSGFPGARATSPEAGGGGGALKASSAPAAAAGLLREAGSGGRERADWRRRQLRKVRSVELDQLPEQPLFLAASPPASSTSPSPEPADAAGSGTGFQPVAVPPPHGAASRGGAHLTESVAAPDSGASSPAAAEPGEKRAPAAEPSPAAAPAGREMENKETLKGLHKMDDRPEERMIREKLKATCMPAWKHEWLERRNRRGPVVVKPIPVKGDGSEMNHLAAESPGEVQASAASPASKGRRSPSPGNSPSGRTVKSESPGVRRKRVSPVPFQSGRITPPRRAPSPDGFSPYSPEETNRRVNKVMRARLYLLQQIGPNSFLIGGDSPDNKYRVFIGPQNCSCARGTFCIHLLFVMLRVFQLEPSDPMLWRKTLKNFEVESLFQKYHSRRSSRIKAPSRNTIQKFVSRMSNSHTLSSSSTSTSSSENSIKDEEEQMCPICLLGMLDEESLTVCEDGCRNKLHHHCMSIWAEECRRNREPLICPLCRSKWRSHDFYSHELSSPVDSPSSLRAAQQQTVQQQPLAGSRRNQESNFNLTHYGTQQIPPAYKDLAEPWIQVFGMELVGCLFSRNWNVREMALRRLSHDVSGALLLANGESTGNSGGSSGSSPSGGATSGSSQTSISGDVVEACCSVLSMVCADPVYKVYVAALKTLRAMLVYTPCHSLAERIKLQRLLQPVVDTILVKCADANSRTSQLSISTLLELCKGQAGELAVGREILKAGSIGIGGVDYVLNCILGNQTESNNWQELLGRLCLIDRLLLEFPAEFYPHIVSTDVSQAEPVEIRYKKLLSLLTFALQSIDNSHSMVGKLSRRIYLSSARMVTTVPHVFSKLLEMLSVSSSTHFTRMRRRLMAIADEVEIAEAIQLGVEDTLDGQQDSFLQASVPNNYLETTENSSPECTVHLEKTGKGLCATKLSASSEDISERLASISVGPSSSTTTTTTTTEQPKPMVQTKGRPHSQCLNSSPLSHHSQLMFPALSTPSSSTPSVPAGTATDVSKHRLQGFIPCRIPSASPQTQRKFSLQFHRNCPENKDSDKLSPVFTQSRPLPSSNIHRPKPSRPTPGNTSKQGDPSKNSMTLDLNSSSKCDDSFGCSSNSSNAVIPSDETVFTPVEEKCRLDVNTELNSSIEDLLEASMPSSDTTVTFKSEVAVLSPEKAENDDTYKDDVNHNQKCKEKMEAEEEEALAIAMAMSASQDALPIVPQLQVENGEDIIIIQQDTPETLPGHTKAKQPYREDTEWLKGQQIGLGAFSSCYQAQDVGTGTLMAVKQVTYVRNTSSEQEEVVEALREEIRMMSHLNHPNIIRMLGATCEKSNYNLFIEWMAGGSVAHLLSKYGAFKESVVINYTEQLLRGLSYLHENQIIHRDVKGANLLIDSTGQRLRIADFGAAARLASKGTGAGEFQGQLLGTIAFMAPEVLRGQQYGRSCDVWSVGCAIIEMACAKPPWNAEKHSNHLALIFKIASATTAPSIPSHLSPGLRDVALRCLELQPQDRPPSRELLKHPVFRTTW
Sequence of PFTAIRE2 (Q96Q40 whole entry): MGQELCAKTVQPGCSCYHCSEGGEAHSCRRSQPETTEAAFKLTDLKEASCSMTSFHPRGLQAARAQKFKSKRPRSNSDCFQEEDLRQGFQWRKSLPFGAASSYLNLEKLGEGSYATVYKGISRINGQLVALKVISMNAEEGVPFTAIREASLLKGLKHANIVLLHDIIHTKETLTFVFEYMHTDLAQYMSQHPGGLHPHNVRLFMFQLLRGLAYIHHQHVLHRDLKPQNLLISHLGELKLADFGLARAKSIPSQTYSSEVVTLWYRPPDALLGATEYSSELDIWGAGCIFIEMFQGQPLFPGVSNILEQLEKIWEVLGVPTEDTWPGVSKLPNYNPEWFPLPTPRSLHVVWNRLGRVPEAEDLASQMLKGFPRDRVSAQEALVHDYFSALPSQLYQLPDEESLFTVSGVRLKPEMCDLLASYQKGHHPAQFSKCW
Procedure for non-mutant kinases: The assay was carried out according to the established KINOMEscan® technology (DiscoveRx® LeadHunter®, Discovery services, www.discoverx.com). […] Screening “hits” are identified by measuring the amount of kinase captured in test versus control samples by using a quantitative, qPCR method that detects an associated DNA label. For most assays, kinase-tagged T7 phage strains ware grown in parallel in 24-well blocks in an E. coli host derived from the BL21 strain. E. coli were grown to log-phase and infected with T7 phage from a frozen stock (multiplicity of infection=0.4) and incubated with shading at 32° C. until lysis (90-150 minutes). The lysates were centrifuged (6,000×g) and filtered (0.2 μm) to remove cell debris. The remaining kinases were produced in HEK293 cells and subsequently tagged with DMA for qPCR detection. Streptavidin-coated magnetic beads were treated with biotinylated small molecule ligands for 30 minutes at room temperature to generate affinity resins for kinase assays. The liganded beads were blocked with excess biotin and washed with blocking buffer (SeaBlock (Pierce), 1% BSA, 0.05 % Tween 20, 1 mM DTT) to remove unbound ligand and to reduce non-specific phage binding. […] All reactions were performed in polypropylene 384-well plates in a final volume of 0.04 ml. The assay plates were incubated at room temperature with shaking for 1 hour and the affinity beads were washed with wash buffer (1×PBS, 0.05% Tween 20). The beads were then re-suspended in elution buffer (1×PBS, 0.05 % Tween 20, 0.5 μM non-biotinylated affinity ligand) and incubated at room temperature with shaking for 30 minutes. The kinase concentration in the eluates was measured by qPCR.
Results were reported as “% Ctrl”, where lower numbers indicate stronger hits. The calculation of the “% Ctrl” was as follow:
In addition to the binding capacity, the Selectivity Score (or S-score) was calculated (Karaman, M. W. et al. A quantitative analysis of kinase inhibitor selectivity. Nat. Biotechnol. 26, 127-132 (2008). The S-score is a quantitative measure of compound selectivity. It is calculated by dividing the number of kinases that a compound binds to by the total number of distinct kinases tested, excluding mutant variants. S-score−Number of hits/Number of assays
S(35)=(number of non-mutant kinases with % Ctrl<35)/(number of non-mutant kinases tested)
S(10)=(number of non-mutant kinases with % Ctrl<10)/(number of non-mutant kinases tested)
S(1)=(number of non-mutant kinases with % Ctrl<1)/(number of non-mutant kinases tested)
and provides a quantitative method of describing compound selectivity to facilitate comparison of different compounds. The screening concentration was 10 μM.

For the compound `Nc1ncc(-c2nc3ccccc3o2)c(-c2ccncc2)n1` [Comparative Compound 324, 5-(1,3-benzoxazol-2-yl)-4-(pyridine-4-yl)pyrimidin-2-amine], the remaining binding at 10 µM on MAP3K2 was determined as 87%; at PIK3CB it was 100%; at VEGFR2, 94%; on KIT-autoinhibited, 88%; on MAP3K1, 85%; at SNARK it was 98%. The remaining binding at 10 µM worked out at 75% in [1]; 6% at JNK3; 98% on PAK4; 100% on CHEK2; 99% on EPHB2; 100% on PFTAIRE2. Also, the remaining binding at 10 µM at FGFR1 was 98%; at EGFR (T790M) it was 88%; on FLT3 (N841I) it was 83%; at DYRK1A, 87%; at CDK8, 100%; at NEK7, 100%. Further, in the experiment on non-mutant kinases (% Ctrl<1), the “Number of Hits S (1)” value was 0. In addition, the “S-score S (1)” value in the experiment with non-mutant kinases (% Ctrl<1) was 0. Also, the “Number of Hits S (10)” value in the experiment on non-mutant kinases (% Ctrl<10) amounted to 4. In the experiment on non-mutant kinases (% Ctrl<10), the “S-score S (10)” value is recorded as 0.01. Besides, the “Number of Hits S (35)” value in the experiment on non-mutant kinases (% Ctrl<35) was found to be 8. Further, the “S-score S (35)” value with non-mutant kinases (% Ctrl<35) amounted to 0.02. The “% Ctrl @ 10000 nM” value in the experiment with FLT3 (ITD) is listed as 85 % Ctrl.

Regarding `CNc1c(C(N)=O)c2ccccn2c1C(=O)c1ccc(F)cc1` [Compound A, 2-methyl-amino-3-[(4-fluorophenyl)carbonyl]indolizine-1-carboxamide], the remaining binding at 10 µM on MAP3K2 stood at 73%; at PIK3CB it was 100%; at VEGFR2 it was 79%; at KIT-autoinhibited, 78%; at MAP3K1 it was 76%; at SNARK, 91%. The remaining binding at 10 µM in [1] turned out to be 46%; at JNK3 it was 48%; on PAK4, 89%; at CHEK2, 100%; at EPHB2, 82%; at PFTAIRE2 it was 100%. Besides, the remaining binding at 10 µM turned out to be 72% at FGFR1; 65% on EGFR (T790M); 87% on FLT3 (N841I); 74% at DYRK1A; 99% at CDK8; 100% at NEK7.
